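Following 48 hours of exposure in 96-well plates, responses at five concentrations were used to interpolate endpoints linearly. GI50: concentration for 50% inhibition of growth.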 Activity calls are given as the source filed them. Rule as the data show it: active = GI50 up to about 1.1 µM and inactive = higher.
What was measured:
Test in all cases: DTP human tumour cell line panel, 48 h
[1] = test system: NCI-H226
[2] = test system: M19-MEL
[3] = test system: NCI-H23
[4] = test system: SK-MEL-5
[5] = test system: SF-268
[6] = test system: OVCAR-8
[7] = test system: CAKI-1
[8] = test system: NCI-H522
[9] = test system: HCC 2998
[10] = test system: EKVX
[11] = test system: LOX IMVI
[12] = test system: SW-620
[13] = test system: SF-539
[14] = test system: OVCAR-5
[15] = test system: 786-0
[16] = test system: SK-MEL-2
[17] = test system: SR
[18] = test system: HOP-62
[19] = test system: RXF 393
[20] = test system: UACC-257
[21] = test system: UO-31
[22] = test system: SNB-75
[23] = test system: ACHN
[24] = test system: LXFL 529
[25] = test system: M14
[26] = test system: A549
[27] = test system: HT-29
[28] = test system: KM12
[29] = test system: A498
[30] = test system: SF-295
[31] = test system: UACC-62
[32] = test system: OVCAR-4
[33] = test system: IGROV-1
[34] = test system: HCT-116
[35] = test system: DMS-273
[36] = test system: OVCAR-3
[37] = test system: U-251
[38] = test system: HL-60
[39] = test system: CCRF-CEM
[40] = test system: HCT-15
[41] = test system: Malme-3M
[42] = test system: SNB-19
[43] = test system: KM-20L2
[44] = test system: SN12C
[45] = test system: MOLT-4
[46] = test system: NCI-H460
[47] = test system: DLD-1
[48] = test system: RPMI-8226
[49] = test system: K562
[50] = test system: SK-MEL-28
[51] = test system: SK-OV-3
[52] = test system: HOP-92
[53] = test system: TK-10
[54] = test system: COLO 205
[55] = test system: HOP-18
[56] = test system: DMS-114
[57] = test system: SNB-78

Structure (SMILES): COc1cc(C(C)c2cc3c(cc2OCCCCCOc2cc4c(cc2C(C)c2cc(OC)c(OC)c(OC)c2)OCO4)OCO3)cc(OC)c1OC (stereo unspecified)
- GI50 [1]: > 100 µM (inactive)
- GI50 [2]: > 100 µM (inactive)
- GI50 [3]: > 100 µM (inactive)
- GI50 [4]: > 100 µM (inactive)
- GI50 [5]: > 100 µM (inactive)
- GI50 [6]: > 100 µM (inactive)
- GI50 [7]: > 100 µM (inactive)
- GI50 [8]: > 100 µM (inactive)
- GI50 [9]: > 100 µM (inactive)
- GI50 [10]: > 100 µM (inactive)
- GI50 [11]: > 100 µM (inactive)
- GI50 [12]: > 100 µM (inactive)
- GI50 [13]: > 100 µM (inactive)
- GI50 [14]: > 100 µM (inactive)
- GI50 [15]: > 100 µM (inactive)
- GI50 [16]: > 100 µM (inactive)
- GI50 [17]: > 100 µM (inactive)
- GI50 [18]: > 100 µM (inactive)
- GI50 [19]: > 100 µM (inactive)
- GI50 [20]: 33.7 µM (inactive)
- GI50 [21]: > 100 µM (inactive)
- GI50 [22]: 59.8 µM (inactive)
- GI50 [23]: > 100 µM (inactive)
- GI50 [24]: > 100 µM (inactive)
- GI50 [25]: > 100 µM (inactive)
- GI50 [26]: > 100 µM (inactive)
- GI50 [27]: > 100 µM (inactive)
- GI50 [28]: > 100 µM (inactive)
- GI50 [29]: > 100 µM (inactive)
- GI50 [30]: > 100 µM (inactive)
- GI50 [31]: > 100 µM (inactive)
- GI50 [32]: > 100 µM (inactive)
- GI50 [33]: > 100 µM (inactive)
- GI50 [34]: > 100 µM (inactive)
- GI50 [35]: > 100 µM (inactive)
- GI50 [36]: > 100 µM (inactive)
- GI50 [37]: > 100 µM (inactive)
- GI50 [38]: > 100 µM (inactive)
- GI50 [39]: > 100 µM (inactive)
- GI50 [40]: > 100 µM
- GI50 [41]: > 100 µM (inactive)
- GI50 [42]: > 100 µM (inactive)
- GI50 [43]: > 100 µM (inactive)
- GI50 [44]: > 100 µM (inactive)
- GI50 [45]: > 100 µM (inactive)
- GI50 [46]: > 100 µM (inactive)
- GI50 [47]: > 100 µM (inactive)
- GI50 [48]: > 100 µM (inactive)
- GI50 [49]: > 100 µM (inactive)
- GI50 [50]: > 100 µM (inactive)

Structure (SMILES): N#CC(NNC(=O)Cc1ccccc1)c1ccc(O)cc1 (stereo unspecified)
- GI50 [1]: > 100 µM (inactive)
- GI50 [2]: > 100 µM (inactive)
- GI50 [3]: > 100 µM (inactive)
- GI50 [4]: > 100 µM (inactive)
- GI50 [5]: > 100 µM (inactive)
- GI50 [6]: > 100 µM (inactive)
- GI50 [7]: > 100 µM (inactive)
- GI50 [8]: > 100 µM (inactive)
- GI50 [11]: > 100 µM (inactive)
- GI50 [12]: > 100 µM (inactive)
- GI50 [51]: > 100 µM (inactive)
- GI50 [52]: 85.9 µM (inactive)
- GI50 [13]: > 100 µM (inactive)
- GI50 [14]: > 100 µM (inactive)
- GI50 [15]: > 100 µM (inactive)
- GI50 [16]: > 100 µM (inactive)
- GI50 [17]: > 100 µM (inactive)
- GI50 [18]: > 100 µM (inactive)
- GI50 [53]: > 100 µM (inactive)
- GI50 [19]: > 100 µM (inactive)
- GI50 [20]: > 100 µM (inactive)
- GI50 [21]: > 100 µM (inactive)
- GI50 [22]: 28.2 µM (inactive)
- GI50 [23]: > 100 µM (inactive)
- GI50 [24]: > 100 µM (inactive)
- GI50 [25]: > 100 µM (inactive)
- GI50 [26]: > 100 µM (inactive)
- GI50 [27]: > 100 µM (inactive)
- GI50 [28]: > 100 µM (inactive)
- GI50 [30]: > 100 µM (inactive)
- GI50 [31]: > 100 µM (inactive)
- GI50 [32]: > 100 µM (inactive)
- GI50 [33]: > 100 µM (inactive)
- GI50 [34]: > 100 µM (inactive)
- GI50 [35]: > 100 µM (inactive)
- GI50 [37]: > 100 µM (inactive)
- GI50 [38]: > 100 µM (inactive)
- GI50 [39]: > 100 µM (inactive)
- GI50 [40]: > 100 µM
- GI50 [41]: > 100 µM (inactive)
- GI50 [54]: > 100 µM (inactive)
- GI50 [44]: > 100 µM (inactive)
- GI50 [55]: > 100 µM (inactive)
- GI50 [45]: > 100 µM (inactive)
- GI50 [46]: > 100 µM (inactive)
- GI50 [47]: > 100 µM (inactive)
- GI50 [48]: > 100 µM (inactive)
- GI50 [49]: > 100 µM (inactive)
- GI50 [50]: > 100 µM (inactive)
- GI50 [56]: > 100 µM (inactive)

Structure (SMILES): CC(C)C(=O)CC(c1ccc(Cl)cc1)N1N=C(C(C)C)CC1c1ccc(Cl)cc1 (stereo unspecified)
- GI50 [1]: > 100 µM (inactive)
- GI50 [3]: 22.6 µM (inactive)
- GI50 [8]: < 0.01 µM (active)
- GI50 [10]: 29.5 µM (inactive)
- GI50 [11]: < 0.01 µM (active)
- GI50 [12]: 37.2 µM (inactive)
- GI50 [51]: < 0.01 µM (active)
- GI50 [52]: > 86.3 µM (inactive)
- GI50 [16]: > 51.5 µM (inactive)
- GI50 [18]: 70 µM (inactive)
- GI50 [53]: > 100 µM (inactive)
- GI50 [22]: 86.9 µM (inactive)
- GI50 [57]: 5.97 µM (inactive)
- GI50 [24]: 98.4 µM (inactive)
- GI50 [27]: 14.6 µM (inactive)
- GI50 [28]: 40.6 µM (inactive)
- GI50 [35]: < 0.01 µM (active)
- GI50 [41]: < 0.01 µM (active)
- GI50 [44]: < 0.01 µM (active)
- GI50 [55]: < 0.01 µM (active)
- GI50 [50]: 40.7 µM (inactive)

Source: ChEMBL document CHEMBL1201862, “PubChem BioAssay data set” (2004)
